Patent US11964946B1, “4,5-bis(4-methoxyphenyl)-1-hexyl-2-(4-nitrophenyl)-1H-imidazole as an antimicrobial compound” (KING FAISAL UNIVERSITY, priority 2023, dated 2024)

Key:
Assay in all cases: Antimicrobial screening, agar dilution method
Assay type in all cases: cell-based
Conditions in all cases: after 10, 20, 40 and 60 minutes at all dilutions 1:100, 1:200, 1:400, 1:800
Escherichia coli = tested on: Escherichia coli
Experimental: (§1) The antimicrobial properties of the 4,5-bis(4-methoxyphenyl)-1-hexyl-2-(4-nitrophenyl)-1H-imidazole was studied by the method of agar dilution. Test solutions of each compound was prepared in concentration of 1% using dimethylformamide as a solvent then they were diluted in physiological solution to obtain the final experimental dilutions 1:100, 1:200, 1:400, 1:800. The effect of these substances were compared with furacillin in a controlled study. The testing microbes used were gram positive bacteria Staphylococcus aureus, gram negative bacteria Pseudomonas aeruginosa and Escherichia coli and Candida albicans fungi were taken. The experiments used for this survey were meat-pentonlu agar (EPA) for cultivation of bacteria and Saburo environment for fungi. Each experiment used 1 ml of test solution on each plate 500 min. Add 2 drops of emulsified with microbes feel. All experimental samples were taken from the agar after 10, 20, 40, 60 minutes in the environment on the basis of Patrk planted. Bacteria were cultivated at a temperature of 37° C. for 1 day and the mushroom was kept in a thermostat for […] at a temperature of 28° C. Then results were checked.

Pseudomonas aeruginosa = tested on: Pseudomonas aeruginosa
Experimental: as §1

Candida albicans = tested on: Candida albicans
Experimental: as §1

Staphylococcus aureus = tested on: Staphylococcus aureus
Experimental: as §1

Measured: inhibition activity (in words)

CCCCCCn1c(-c2ccc(OC)c(OC)c2)nc(-c2ccc(Br)cc2)c1-c1ccc(Br)cc1 [4,5-bis(4-bromophenyl)-1-hexyl-2-(3,4-dimethoxyphenyl)-1H-imidazole]
highest inhibition activity: all assays above
